We go through 24 molecules from patent US10800782B2, “Inhibitors of cellular metabolic processes” (Agios Pharmaceuticals, Inc., priority 2016, dated 2020).

The test addresses T1, MAT2A (Homo sapiens, UniProt P31153).
T1 construct: His6; made in house; host or cells: SF9 insect cells
As to the kind of experiment: MAT2A biochemical assay (colorimetric inorganic phosphate detection, PiColorLock). Conditions: recombinant His6-tagged MAT2A 1 μg/ml; 60 minutes preincubation at 25° C.; L-Met 80 μM, ATP 100 μM; 60 minutes reaction; read at 623 nm; read-out: MAT2A Inhibition Score. The method, boiled down: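 Colorimetric malachite green readout of phosphate released when MAT2A turns over L-Met and ATP, after 60 min at room temperature. Enzyme: SF9-expressed His6-tagged MAT2A at 1 μg/ml. Buffer: Tris pH 8.0, 50 mM KCl, 15 mM MgCl2, 300 uM EDTA, 0.005% BSA. Compounds tested as ten-point three-fold dilutions.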

pIC50: −log10 of the molar value. Some results are limits rather than exact numbers.

T1 sequence (P31153 whole entry): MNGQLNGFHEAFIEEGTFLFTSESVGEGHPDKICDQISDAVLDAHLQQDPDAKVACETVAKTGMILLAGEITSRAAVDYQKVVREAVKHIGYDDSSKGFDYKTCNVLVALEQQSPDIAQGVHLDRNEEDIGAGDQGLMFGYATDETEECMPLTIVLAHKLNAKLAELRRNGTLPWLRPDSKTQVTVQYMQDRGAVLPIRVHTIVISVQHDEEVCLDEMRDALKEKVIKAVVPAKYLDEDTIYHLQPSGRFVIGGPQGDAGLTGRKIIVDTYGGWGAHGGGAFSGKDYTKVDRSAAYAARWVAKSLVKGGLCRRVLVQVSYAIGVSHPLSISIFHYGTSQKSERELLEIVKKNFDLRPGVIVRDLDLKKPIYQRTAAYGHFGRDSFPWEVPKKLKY

Consider `CCNC(=O)c1nnc(Nc2[nH]c3c(-c4ccccc4)c(-c4ccccc4)nn3c(=O)c2-c2ccc3ncccc3c2)o1` [Compound 199, N-ethyl-5-((7-oxo-2,3-diphenyl-6-(quinolin-6-yl)-4,7-dihydropyrazolo[1,5-a]pyrimidin-5-yl)amino)-1,3,4-oxadiazole-2-carboxamide], for which the pIC50 was greater than 7.00.
As for `COc1ccc(-c2c(N/C(N)=N/O)[nH]c3c(-c4ccccc4)c(-c4ccccc4)nn3c2=O)cc1` [Compound 200, (E)-2-hydroxy-1-(6-(4-methoxyphenyl)-7-oxo-2,3-diphenyl-4,7-dihydropyrazolo[1,5-a]pyrimidin-5-yl)guanidine], the pIC50 is greater than 7.00.
For `COc1ccc(-c2c(Nc3ccn(COC(=O)[C@@H](N)C(C)C)n3)[nH]c3c(-c4ccccc4)c(-c4ccccc4)nn3c2=O)cc1` [Compound 201, (S)-(3-((6-(4-methoxyphenyl)-7-oxo-2,3-diphenyl-4,7-dihydropyrazolo[1,5-a]pyrimidin-5-yl)amino)-1H-pyrazol-1-yl)methyl 2-amino-3-methylbutanoate] the value was greater than 7.00.
`COc1ccc(-c2c(Nc3ccccn3)[nH]c3c(C4=CCCCC4)c(-c4ccccn4)nn3c2=O)cc1` [Compound 203, 3-(cyclohex-1-en-1-yl)-6-(4-methoxyphenyl)-2-(pyridin-2-yl)-5-(pyridin-2-ylamino)pyrazolo[1,5-a]pyrimidin-7(4H)-one]: the pIC50 is greater than 7.00.
With `Cc1[nH]c2c(-c3ccccc3)c(-c3ccccc3)nn2c(=O)c1-c1ccc2ncccc2c1` [Compound 204, 5-methyl-2,3-diphenyl-6-(quinolin-6-yl)pyrazolo[1,5-a]pyrimidin-7(4H)-one], the pIC50 is greater than 7.00.
Take `Cc1[nH]c2c(-c3ccccc3)c(-c3ccccc3F)nn2c(=O)c1-c1ccc2ncccc2c1` [Compound 205, 2-(2-fluorophenyl)-5-methyl-3-phenyl-6-(quinolin-6-yl)pyrazolo[1,5-a]pyrimidin-7(4H)-one]: the pIC50 was greater than 7.00.
The figure for `Cc1[nH]c2c(N3CCCCC3)c(-c3ccccc3)nn2c(=O)c1-c1ccc2ncccc2c1` [Compound 206, 5-methyl-2-phenyl-3-(piperidin-1-yl)-6-(quinolin-6-yl)pyrazolo[1,5-a]pyrimidin-7(4H)-one] is greater than 7.00; for `Cc1[nH]c2c(N3CCC(F)(F)CC3)c(-c3ccccc3)nn2c(=O)c1-c1ccc2ncccc2c1` [Compound 207, 3-(4,4-difluoropiperidin-1-yl)-5-methyl-2-phenyl-6-(quinolin-6-yl)pyrazolo[1,5-a]pyrimidin-7(4H)-one] it is greater than 7.00; for `Cc1[nH]c2c(C3=CCCCC3)c(-c3ccccc3)nn2c(=O)c1-c1ccc2nccnc2c1` [Compound 208, 3-(cyclohex-1-en-1-yl)-5-methyl-2-phenyl-6-(quinoxalin-6-yl)pyrazolo[1,5-a]pyrimidin-7(4H)-one] it is greater than 7.00.
The figure for `COc1ccc(-c2c(C)[nH]c3c(-c4ccccc4)c(-c4ccccc4)nn3c2=O)cc1` [Compound 209, 6-(4-methoxyphenyl)-5-methyl-2,3-diphenylpyrazolo[1,5-a]pyrimidin-7(4H)-one] is greater than 7.00; for `CCOc1ccc(-c2c(C)[nH]c3c(-c4ccccc4)c(-c4ccccc4)nn3c2=O)cc1` [Compound 210, 6-(4-ethoxyphenyl)-5-methyl-2,3-diphenylpyrazolo[1,5-a]pyrimidin-7(4H)-one] it is greater than 7.00.
The figure for `Cc1[nH]c2c(-c3ccccc3)c(-c3ccccc3)nn2c(=O)c1-c1ccc2c(c1)OCCO2` [Compound 211, 6-(2,3-dihydrobenzo[b][1,4]dioxin-6-yl)-5-methyl-2,3-diphenylpyrazolo[1,5-a]pyrimidin-7(4H)-one] is greater than 7.00.
Consider `COc1ccc(-c2c(C)[nH]c3c(C4=CCCCC4)c(-c4ccccc4)nn3c2=O)cc1` [Compound 212, 3-(cyclohex-1-en-1-yl)-6-(4-methoxyphenyl)-5-methyl-2-phenylpyrazolo[1,5-a]pyrimidin-7(4H)-one], for which the pIC50 was greater than 7.00.
For `COc1ccc(-c2c(C)[nH]c3c(N4CCC(F)(F)CC4)c(-c4ccccc4)nn3c2=O)cc1` [Compound 213, 3-(4,4-difluoropiperidin-1-yl)-6-(4-methoxyphenyl)-5-methyl-2-phenylpyrazolo[1,5-a]pyrimidin-7(4H)-one] the value was greater than 7.00.
For `Cc1[nH]c2c(C3=CCCC3)c(-c3ccccc3)nn2c(=O)c1-c1ccc2ncccc2c1` [Compound 215, 3-(cyclopent-1-en-1-yl)-5-methyl-2-phenyl-6-(quinolin-6-yl)pyrazolo[1,5-a]pyrimidin-7(4H)-one] the value was greater than 7.00; for `Cc1[nH]c2c(C3=CCCCC3)c(-c3ccccc3)nn2c(=O)c1-c1ccc2ncccc2c1` [Compound 216, 3-(cyclohex-1-en-1-yl)-5-methyl-2-phenyl-6-(quinolin-6-yl)pyrazolo[1,5-a]pyrimidin-7(4H)-one], greater than 7.00; for `Cc1[nH]c2c(C3=CCCCO3)c(-c3ccccc3)nn2c(=O)c1-c1ccc2ncccc2c1` [Compound 217, 3-(3,4-dihydro-2H-pyran-6-yl)-5-methyl-2-phenyl-6-(quinolin-6-yl)pyrazolo[1,5-a]pyrimidin-7(4H)-one], greater than 7.00.
The figure for `COc1ccc(-c2c(C)[nH]c3c(C4=CCOCC4)c(-c4ccccc4)nn3c2=O)cc1` [Compound 218, 3-(3,6-dihydro-2H-pyran-4-yl)-6-(4-methoxyphenyl)-5-methyl-2-phenylpyrazolo[1,5-a]pyrimidin-7(4H)-one] is greater than 7.00.
As to `COc1ccc(-c2c(C)[nH]c3c(C4=CCCOC4)c(-c4ccccc4)nn3c2=O)cc1` [Compound 219, 3-(5,6-dihydro-2H-pyran-3-yl)-6-(4-methoxyphenyl)-5-methyl-2-phenylpyrazolo[1,5-a]pyrimidin-7(4H)-one], the pIC50 is greater than 7.00.
Turning to `COc1ccc(-c2c(C)[nH]c3c(-c4cc[nH]c4)c(-c4ccccc4)nn3c2=O)cc1` [Compound 220, 6-(4-methoxyphenyl)-5-methyl-2-phenyl-3-(1H-pyrrol-3-yl)pyrazolo[1,5-a]pyrimidin-7(4H)-one], the pIC50 was greater than 7.00.
Consider `COc1ccc(-c2c(CO)[nH]c3c(-c4ccccc4)c(-c4ccccc4)nn3c2=O)cc1` [Compound 221, 5-(hydroxymethyl)-6-(4-methoxyphenyl)-2,3-diphenylpyrazolo[1,5-a]pyrimidin-7(4H)-one], for which the pIC50 is greater than 7.00.
The figure for `COc1ccc(-c2c(CN)[nH]c3c(-c4ccccc4)c(-c4ccccc4)nn3c2=O)cc1` [Compound 222, 5-(aminomethyl)-6-(4-methoxyphenyl)-2,3-diphenylpyrazolo[1,5-a]pyrimidin-7(4H)-one] is greater than 7.00; for `NCc1[nH]c2c(-c3ccccc3)c(-c3ccccc3)nn2c(=O)c1-c1ccc2c(c1)OCCO2` [Compound 223, 5-(aminomethyl)-6-(2,3-dihydrobenzo[b][1,4]dioxin-6-yl)-2,3-diphenylpyrazolo[1,5-a]pyrimidin-7(4H)-one] it is greater than 7.00; for `NCc1[nH]c2c(-c3ccccc3)c(-c3ccccc3)nn2c(=O)c1-c1ccc2ncccc2c1` [Compound 224, 5-(aminomethyl)-2,3-diphenyl-6-(quinolin-6-yl)pyrazolo[1,5-a]pyrimidin-7(4H)-one] it is greater than 7.00.
